{"source": "patent US8871510B2", "about": "“Methods for generating T lymphocytes from hematopoietic stem cells” (University of Utah Research Foundation, priority 2009, dated 2014)", "key": {"[1]": {"system": "mouse lymphoid progenitor cells (c-kit+Sca-1+ lineage-neg CD90.1-neg)", "assay": "Ascorbate versus other anti-oxidants in OP9-DL1 lymphoid progenitor culture (30 days)", "assay_type": "cell-based", "settings": "added after 14 days, culture through 30 days; anti-oxidants data not shown", "description": "To establish the mechanism by which ascorbic acid promotes T cell development, we initially tested whether the anti-oxidant activity of ascorbic acid plays a key role. To test this, mouse lymphoid progenitor cells were isolated from adult bone marrow tissue by flow sorting, based on the phenotype c-kit+Sca-1+ lineage-neg CD90.1-neg, and 1000-2000 cells were plated per ml in the presence of the cytokines IL7 and Flt3L and the stromal cell line OP9-DL1. Cultures were harvested by forceful pipetting every 3-4 days and reseeded on a fresh monolayer of OP9-DL1 cells. After 14 days in culture, the cell number had expanded approximately 1000-fold (data not shown). At this point, the culture was split into two conditions, with one set of cultures supplemented with 1-ascorbic acid-2-phosphate (250 μg/ml), and the passages were continued through 30 days. […] Numbers indicate the percentage of cells with co-expression of CD4 and CD8 or CD3 and TCR."}, "[2]": {"system": "Lymphocyte progenitor cells (KLS, Thy1.1-)", "assay": "TLR-L and ascorbic acid effects on NK and T cell development from lymphoid progenitors co-cultured with OP9-DL1", "assay_type": "cell-based, mouse", "settings": "SCF contaminated with LPS through production in E. coli", "description": "We therefore designed experiments to evaluate the differential effects of TLR-L and ascorbic acid on NK and T cell development from lymphoid progenitors co-cultured with OP9-DL1 stromal cells. Lymphocyte progenitor cells (KLS, Thy1.1-) were sorted from adult mouse bone marrow and 1000-2000 progenitor cells were seeded per well in a 24 well plate coated with OP9-DL1 stroma. Cultures were supplemented with IL-7 (5 ng/ml), Flt3 ligand (5 ng/ml), and SCF (100 ng/ml) plus one of 5 different TLR-L (TLR1/2, TLR3, TLR4, TLR5, and a crude LPS preparation that likely contains a number of TLR-L), with or without addition of a stabilized form of ascorbic acid, phosphoascorbate at a final concentration of 250 μg/ml. Cells were passaged, counted and re-seeded with fresh media and supplements twice a week over a 30-day period. Immunophenotype and viability were evaluated by flow cytometry. Markers for T cell development included CD44, CD25, CD3, CD4, CD8, T cell receptor […] and T cell receptor γδ chains. NK cells were evaluated for the presence of NKp46, NK1.1, and DX5."}, "[3]": {"system": "mouse bone marrow-derived progenitor cells", "assay": "Growth kinetics of bone marrow-derived progenitor cells in OP9-DL1 cultures (cytokines, ΔQ, NH4Cl)", "assay_type": "cell-based", "text": "The combination of Flt3L and IL-7 promotes 10^5-fold expansion over 26 days, while addition of stem cell factor (SCF) enhances this by 5-fold. […] The growth inhibition is mainly due to the failure of selection by TCR signaling, as shown by the failure of CD4^+CD8^+ double positive (DP) cells to survive and expand.\nIn this Example, several important variables that are important to the successful development of T lymphocytes from bone marrow-derived cells were identified. […] Our experiments defining optimal culture conditions tell us that in order to promote T cell development from bone marrow-derived progenitor cells, a two-stage culture system is required. In the first stage, bone marrow cells are expanded under the influence of lymphoid-specifying cytokines (IL-7 and Flt3 ligand) and notch signaling delivered by OP9-DL1 cells. The expansion of the resulting pro-T cells is robust, reaching a total expansion of 10^5-fold or more (FIG. 1).\nAll cultures were initiated by seeding 2×10^3 FACS-sorted bone marrow progenitor cells, selected based on the surface phenotype c-kit+Sca-1+Thy-1.1-neg lineage-neg, onto a feeder layer of OP9-DL1 stromal cells. All cultures contained 1 ng/ml IL-7 and 5 ng/ml Flt3L and otherwise identical additives (10% fetal calf serum, stabilized alanyl-glutamine, antibiotics, 2-ME, supplemental amino acids, and supplemental vitamins)."}}, "data": [{"compound": "N[C@@H](CS)C(=O)O", "note": "[1-cysteine]", "values": [{"measurement": "Differentiating effect (CD4/CD8 and CD3/TCR co-expression)", "setting": "[1]", "value": "not reproduced"}]}, {"compound": "SCF: stem cell factor; in b105 contaminated with LPS through its production in E. coli", "values": [{"measurement": "Promotion of NK cell development in the OP9-DL1 culture system", "setting": "[2]", "value": "particularly effective"}, {"measurement": "Enhancement of expansion on addition to Flt3L and IL-7", "setting": "[3]; over 26 days, FIG. 1A", "value": 5, "unit": "fold"}]}, {"compound": "O=C(O)CCCCC1CCSS1", "note": "(stereo not drawn) [alpha-lipoic acid]", "values": [{"measurement": "Differentiating effect (CD4/CD8 and CD3/TCR co-expression)", "setting": "[1]", "value": "not reproduced"}]}, {"compound": "Cl.N", "note": "[NH4Cl, reference compound]", "values": [{"measurement": "Expansion of the T lineage", "setting": "[3]; day 15 of culture, FIG. 1B", "value": "cease to expand"}]}, {"compound": "CC(=O)N[C@@H](CS)C(=O)O", "note": "[N-acetyl-cysteine]", "values": [{"measurement": "Differentiating effect (CD4/CD8 and CD3/TCR co-expression)", "setting": "[1]", "value": "not reproduced"}]}]}
